≈ marks a conversion by molar mass, not a printed value.
Experiments:
Canis familiaris = experiment: In vivo antihypertensive activity against anaesthetized dogs after intravenous administration of specified threshold dose; type: functional, Canis lupus familiaris
Oryctolagus cuniculus = species on record: Oryctolagus cuniculus; experiment: Evaluated in vitro for the inhibition of KCl-induced contraction of isolated rabbit aorta rings.; type: functional

Row | Structure (SMILES) | IC50 (Oryctolagus cuniculus) [µg/mL] | Dose (Canis familiaris) [mg/kg]
1 | COC(=O)C1=C(C)NC(C)=C(C(=O)OC)C1c1ccccc1 | 0.04 (≈ 0.133 µM) | 0.05
2 | CCOC(=O)C1=C(C)N=C(C)/C(=C(/O)OCC)C1(C)c1cccnc1 (stereo unspecified) | 9 (≈ 26.1 µM) | 3
3 | CCOC(=O)C1=C(C)N=C(C)/C(=C(/O)OCC)C1c1cccnc1 (stereo unspecified) | 0.5 (≈ 1.51 µM) | 0.3

Now from value to compound, other results behind:

Row | IC50 (Oryctolagus cuniculus) [µg/mL] | Structure (SMILES) | Dose (Canis familiaris) [mg/kg]
4 | 3.6 (≈ 10.9 µM) | CCC1(c2ccccc2)C(C(=O)OC)=C(C)N=C(C)/C1=C(/O)OC (stereo unspecified) | 
5 | 2.3 (≈ 6.38 µM) | COC(=O)C1=C(C)N=C(C)/C(=C(/O)OC)C1(C)c1cccc([N+](=O)[O-])c1 (stereo unspecified) | 0.3
6 | 1.2 (≈ 3.81 µM) | COC(=O)C1=C(C)N=C(C)/C(=C(/O)OC)C1(C)c1ccccc1 (stereo unspecified) | 3
